For orientation: IC50 means the concentration that inhibits the measured activity by half.

These results are taken from patent US11839613B2, “Pyrimidine derivatives as PGE2 receptor modulators” (IDORSIA PHARMACEUTICALS LTD, priority 2017, dated 2023).

The target in assay [1] is PTGER2 (EP2) (Homo sapiens (Human), UniProt P43116). The assay is described as follows: hEP2 b-arrestin assay (PathHunter HEK 293 PTGER2 b-arrestin cells). It counts as cell-based. The settings on record: antagonistic activity, beta-arrestin assay; read-out: hEP2 b-arr IC50. The method, then:
Plate is pre-incubated 15 minutes at 37° C. Then five microliters of PGE2 (final conc. 5 μM) are transferred into the assay plate. Plate is incubated 120 minutes at 37° C.
(each concentration is measured in duplicate)

Assay [2] concerns the target PTGER4 (EP4) (Homo sapiens (Human), UniProt P35408). The assay is described as follows: cell-based.
From the text: The system is based on the Enzyme Fragment Complementation Technology. Two complementing fragments of the b-galactosidase enzyme are expressed within stably transfected cells. The larger portion of b-gal, termed EA for Enzyme Acceptor, is fused to the C-terminus of b-arrestin 2. The smaller fragment, termed ProLink™ tag, is fused to PTGER2 (EP2) or PTRGER4 (EP4) at the C-terminus. Upon activation, b-arrestin is recruited which forces the interaction of ProLink and EA, allowing complementation of the two fragments of b-gal and the formation of a functional enzyme which is capable of hydrolysing the substrate and generating a chemiluminescent signal.
Plate is incubated at 37° C., 5% CO2 for 24 hours.
Stock solutions of test compounds are made at a concentration of 10 mM in DMSO, and serially diluted in DMSO to concentrations required for inhibition dose response curves (tested concentration range 10 μM-2 nM or 1 μM-0.2 nM).
Five microliters of diluted compounds are transferred into the assay plate. Plate is pre-incubated 15 minutes at 37° C. Then five microliters of PGE2 (final conc. 20 nM) are transferred into the assay plate. Plate is incubated 120 minutes at 37° C.
Twelve I of reagent are transferred to the assay plate and incubate for 1 hour at RT in the dark. Luminescence counts are read on a BMG Fluostar Optima reader according to manufacturer's instructions.
For each compound concentration calculate of the percentage of activity compared to DMSO control value as average ±STDEV. (each concentration is measured in duplicate)

Chain of PTGER2 (EP2) (P43116 whole entry): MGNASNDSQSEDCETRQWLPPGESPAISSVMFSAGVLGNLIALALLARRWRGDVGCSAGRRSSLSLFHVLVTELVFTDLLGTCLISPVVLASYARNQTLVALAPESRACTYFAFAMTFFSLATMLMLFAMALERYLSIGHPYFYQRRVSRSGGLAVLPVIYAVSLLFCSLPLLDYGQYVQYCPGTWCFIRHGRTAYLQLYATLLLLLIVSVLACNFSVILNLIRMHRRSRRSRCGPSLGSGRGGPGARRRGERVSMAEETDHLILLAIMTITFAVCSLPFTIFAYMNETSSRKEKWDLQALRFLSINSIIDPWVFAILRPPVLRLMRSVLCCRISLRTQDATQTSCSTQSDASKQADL
Chain of PTGER4 (EP4) (P35408 whole entry): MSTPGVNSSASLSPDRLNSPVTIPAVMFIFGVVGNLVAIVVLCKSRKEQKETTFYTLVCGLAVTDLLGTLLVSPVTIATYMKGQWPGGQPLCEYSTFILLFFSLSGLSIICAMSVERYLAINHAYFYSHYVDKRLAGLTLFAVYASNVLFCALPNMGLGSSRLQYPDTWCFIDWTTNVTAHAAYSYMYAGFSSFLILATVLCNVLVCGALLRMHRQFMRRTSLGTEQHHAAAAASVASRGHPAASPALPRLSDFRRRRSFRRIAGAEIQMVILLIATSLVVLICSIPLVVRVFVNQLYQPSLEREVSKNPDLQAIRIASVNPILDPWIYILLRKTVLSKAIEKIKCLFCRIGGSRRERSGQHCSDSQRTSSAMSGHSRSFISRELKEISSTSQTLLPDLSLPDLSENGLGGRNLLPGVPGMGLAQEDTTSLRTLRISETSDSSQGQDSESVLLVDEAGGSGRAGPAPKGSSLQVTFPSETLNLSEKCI

`CN1C(=O)NCc2ccc(-c3cc(NCCc4cc(F)c5sccc5c4)ncn3)cc21` [Example 530, 7-{6-[2-(7-Fluoro-benzo[b]thiophen-5-yl)-ethylamino]-pyrimidin-4-yl}-1-methyl-3,4-dihydro-1H-quinazolin-2-one]: the values for the IC50 in assay [1] and in assay [2] were 514 nM and 44 nM, respectively.

Take `Cc1cc(-c2cc(NCCc3cc(F)c4sccc4c3)ncn2)cc(Cl)c1CC(=O)O` [Example 546, (2-Chloro-4-{6-[2-(7-fluoro-benzo[b]thiophen-5-yl)-ethylamino]-pyrimidin-4-yl}-6-methyl-phenyl)-acetic acid]: the IC50 in assay [1] was found to be 980 nM; in assay [2], 166 nM.

As to `O=C(O)c1coc2cc(-c3cc(NCCc4cc(F)c5sccc5c4)ncn3)ccc12` [Example 549, 6-{6-[2-(7-Fluoro-benzo[b]thiophen-5-yl)-ethylamino]-pyrimidin-4-yl}-benzofuran-3-carboxylic acid], the IC50 was found to be 560 nM in assay [1] and 190 nM in assay [2].

Regarding `CCOc1cc(-c2cc(NCCc3cc(F)c4sccc4c3)ncn2)ccc1C(=O)O` [Example 361, 2-Ethoxy-4-{6-[2-(7-fluoro-benzo[b]thiophen-5-yl)-ethylamino]-pyrimidin-4-yl}-benzoic acid], the results for the IC50 in assay [1] and in assay [2] were 187 nM and 116 nM, respectively.

`CCc1cc(-c2cc(NCCc3cc(F)c4sccc4c3)ncn2)sc1CC(=O)O` [Example 545, (3-Ethyl-5-{6-[2-(7-fluoro-benzo[b]thiophen-5-yl)-ethylamino]-pyrimidin-4-yl}-thiophen-2-yl)-acetic acid]: the IC50 in assay [1] was 394 nM; in assay [2] it was 25 nM.

Regarding `CCOc1cc2c(cc1CCNc1cc(-c3ccc(CC(=O)O)c(OC(F)F)c3)ncn1)OCCO2` [Example 510, (2-Difluoromethoxy-4-{6-[2-(7-ethoxy-2,3-dihydro-benzo[1,4]dioxin-6-yl)-ethylamino]-pyrimidin-4-yl}-phenyl)-acetic acid], the IC50 in assay [1] turned out to be 45 nM; in assay [2], 194 nM.

Consider `CCOc1cc(-c2cc(NCCc3ccc4ccsc4c3C)ncn2)ccc1CC(=O)O` [Example 472, (2-Ethoxy-4-{6-[2-(7-methyl-benzo[b]thiophen-6-yl)-ethylamino]-pyrimidin-4-yl}-phenyl)-acetic acid], for which the IC50 in assay [1] was 680 nM; in assay [2] it was 246 nM.

For `CCOc1cc2c(cc1CCNc1cc(-c3ccc(C(=O)O)c(CC)c3)ncn1)OCCO2` [Example 516, 4-{6-[2-(7-Ethoxy-2,3-dihydro-benzo[1,4]dioxin-6-yl)-ethylamino]-pyrimidin-4-yl}-2-ethyl-benzoic acid], the IC50 in assay [1] is 23 nM; in assay [2], 930 nM.

For the compound `CCOc1cc2c(cc1CCNc1cc(-c3ccc(CC(=O)O)c(CC(C)C)c3)ncn1)OCCO2` [Example 412, (4-{6-[2-(7-Ethoxy-2,3-dihydro-benzo[1,4]dioxin-6-yl)-ethylamino]-pyrimidin-4-yl}-2-isobutyl-phenyl)-acetic acid], the IC50 in assay [1] worked out at 20 nM; in assay [2], 40 nM.

`CCOc1cc2c(cc1CCNc1cc(-c3cc(F)c(CC(=O)O)c(OCC)c3)ncn1)OCCO2` [Example 403, (2-Ethoxy-4-{6-[2-(7-ethoxy-2,3-dihydro-benzo[1,4]dioxin-6-yl)-ethylamino]-pyrimidin-4-yl}-6-fluoro-phenyl)-acetic acid]: the IC50 in assay [1] was found to be 57 nM; in assay [2], 65 nM.

Regarding `CCOc1cc(-c2cc(NCCc3cc(F)c4sccc4c3)ncn2)ccc1C(=O)NC` [Example 462, 2-Ethoxy-4-{6-[2-(7-fluoro-benzo[b]thiophen-5-yl)-ethylamino]-pyrimidin-4-yl}-N-methyl-benzamide], the IC50 in assay [1] came to 325 nM; in assay [2] it was 197 nM.

`CCOc1cc(-c2cc(NCCc3cc4ccsc4cc3OC)ncn2)cc(F)c1CC(=O)O` [Example 371, (2-Ethoxy-6-fluoro-4-{6-[2-(6-methoxy-benzo[b]thiophen-5-yl)-ethylamino]-pyrimidin-4-yl}-phenyl)-acetic acid]: the IC50 in assay [1] came out at 86 nM; in assay [2] it was 88 nM.

For the compound `COC(=O)c1ccc(-c2cc(NCCc3cc(F)c4sccc4c3)ncn2)cc1OC1CC1` [Example 538, 2-Cyclopropoxy-4-{6-[2-(7-fluoro-benzo[b]thiophen-5-yl)-ethylamino]-pyrimidin-4-yl}-benzoic acid methyl ester], the IC50 in assay [1] amounted to 685 nM; in assay [2], 99 nM.

As to `CCOc1cc(-c2cc(NCCc3ccc4ccsc4c3C)ncn2)ccc1C(=O)O` [Example 470, 2-Ethoxy-4-{6-[2-(7-methyl-benzo[b]thiophen-6-yl)-ethylamino]-pyrimidin-4-yl}-benzoic acid], the IC50 in assay [1] is 343 nM; in assay [2], 420 nM.

Take `CCCc1cc(-c2cc(NCCc3cc(F)c4sccc4c3)ncn2)ccc1C(=O)NCCO` [Example 460, 4-{6-[2-(7-Fluoro-benzo[b]thiophen-5-yl)-ethylamino]-pyrimidin-4-yl}-N-(2-hydroxy-ethyl)-2-propyl-benzamide]: the results for the IC50 in assay [1] and in assay [2] were 207 nM and 161 nM, respectively.

As for `CSc1cc(-c2cc(NCCc3ccc4ccsc4c3C)ncn2)ccc1C(=O)O` [Example 473, 4-{6-[2-(7-Methyl-benzo[b]thiophen-6-yl)-ethylamino]-pyrimidin-4-yl}-2-methylsulfanyl-benzoic acid], the IC50 amounted to 137 nM in assay [1] and 275 nM in assay [2].

For `CCOc1cc(-c2cc(NCCc3ccc4sccc4c3F)ncn2)ccc1CC(=O)O` [Example 368, (2-Ethoxy-4-{6-[2-(4-fluoro-benzo[b]thiophen-5-yl)-ethylamino]-pyrimidin-4-yl}-phenyl)-acetic acid], the IC50 in assay [1] was determined as 221 nM; in assay [2], 66 nM.

As to `COc1cc2ccccc2c(C)c1CCNc1cc(-c2ccc(CC(=O)O)c(OC(F)F)c2)ncn1` [Example 443, (2-Difluoromethoxy-4-{6-[2-(3-methoxy-1-methyl-naphthalen-2-yl)-ethylamino]-pyrimidin-4-yl}-phenyl)-acetic acid], the results for the IC50 in assay [1] and in assay [2] were 107 nM and 29 nM, respectively.

Take `CCc1cc(-c2cc(NCCc3cc(F)c4sccc4c3)ncn2)cc(Cl)c1CC(=O)O` [Example 541, (2-Chloro-6-ethyl-4-{6-[2-(7-fluoro-benzo[b]thiophen-5-yl)-ethylamino]-pyrimidin-4-yl}-phenyl)-acetic acid]: the values for the IC50 in assay [1] and in assay [2] were 604 nM and 88 nM, respectively.

For `CC(C)Oc1cc(-c2cc(NCCc3cc(F)c4sccc4c3)ncn2)ccc1C(=O)O` [Example 491, 4-{6-[2-(7-Fluoro-benzo[b]thiophen-5-yl)-ethylamino]-pyrimidin-4-yl}-2-isopropoxy-benzoic acid], the IC50 turned out to be 372 nM in assay [1] and 148 nM in assay [2].

On to `CCCc1cc(-c2cc(NCCc3cc4c(cc3OC)OCCO4)ncn2)ccc1C(C)C(=O)O` (racemic) [Example 401, rac-2-(4-{6-[2-(7-Methoxy-2,3-dihydro-benzo[1,4]dioxin-6-yl)-ethylamino]-pyrimidin-4-yl]-2-propyl-phenyl)-propionic acid], for which the IC50 in assay [1] was 331 nM; in assay [2], 114 nM.

On to `CCOc1cc(-c2cc(NCCc3c(OC)cc4ccccc4c3C)ncn2)ccc1OCCC(=O)O` [Example 423, 3-(2-Ethoxy-4-{6-[2-(3-methoxy-1-methyl-naphthalen-2-yl)-ethylamino]-pyrimidin-4-yl}-phenoxy)-propionic acid], for which the IC50 was 49 nM in assay [1] and 10 nM in assay [2].

As to `CCc1cc(-c2cc(NCCc3cc(F)c4sccc4c3)ncn2)ccc1C(=O)O` [Example 518, 2-Ethyl-4-{6-[2-(7-fluoro-benzo[b]thiophen-5-yl)-ethylamino]-pyrimidin-4-yl}-benzoic acid], the values for the IC50 in assay [1] and in assay [2] were 116 nM and 176 nM, respectively.

For `COc1cc2ccccc2c(C)c1CCNc1cc(-c2ccc(C(=O)O)c(OC3CC3)c2)ncn1` [Example 448, 2-Cyclopropoxy-4-{6-[2-(3-methoxy-1-methyl-naphthalen-2-yl)-ethylamino]-pyrimidin-4-yl}-benzoic acid], the 50% inhibitory concentration (IC50) in assay [1] was 15 nM; in assay [2], 46 nM.

For the compound `O=C(O)C1Cc2cc(-c3cc(NCCc4ccc5sccc5c4)ncn3)ccc2O1` (racemic) [Example 474, rac-5-[6-(2-Benzo[b]thiophen-5-yl-ethylamino)-pyrimidin-4-yl]-2,3-dihydro-benzofuran-2-carboxylic acid], the IC50 in assay [1] came to 272 nM; in assay [2], 914 nM.

Take `CSc1cc(-c2cc(NCCc3cc(C)c4sccc4c3)ncn2)ccc1C(=O)O` [Example 477, 4-{6-[2-(7-Methyl-benzo[b]thiophen-5-yl)-ethylamino]-pyrimidin-4-yl}-2-methylsulfanyl-benzoic acid]: the IC50 in assay [1] amounted to 316 nM; in assay [2], 210 nM.

Turning to `COc1cc2c(c(C)c1CCNc1cc(-c3ccc(C(=O)O)c(OC4CCC4)c3)ncn1)OCCO2` [Example 396, 2-Cyclobutoxy-4-{6-[2-(7-methoxy-5-methyl-2,3-dihydro-benzo[1,4]dioxin-6-yl)-ethylamino]-pyrimidin-4-yl}-benzoic acid], the IC50 in assay [1] was 2 nM; in assay [2], 44 nM.

`CCOc1cc(-c2cc(NCCc3cc(C)c4sccc4c3)ncn2)ccc1C(=O)O` [Example 476, 2-Ethoxy-4-{6-[2-(7-methyl-benzo[b]thiophen-5-yl)-ethylamino]-pyrimidin-4-yl}-benzoic acid]: the IC50 in assay [1] was determined as 428 nM; in assay [2] it was 264 nM.

Regarding `COc1cc2c(c(F)c1CCNc1cc(-c3ccc(CC(=O)O)c(OC(F)F)c3)ncn1)OCCO2` [Example 442, (2-Difluoromethoxy-4-{6-[2-(5-fluoro-7-methoxy-2,3-dihydro-benzo[1,4]dioxin-6-yl)-ethylamino]-pyrimidin-4-yl}-phenyl)-acetic acid], the figures for the IC50 in assay [1] and in assay [2] were 82 nM and 27 nM, respectively.
